Legend:
ABUTH (Velvetleaf) [1] = assay: Postemergence herbicidal evaluation; format: in vivo, Abutilon theophrasti; settings: for ABUTH herbicidal rating: postemergence
How it was run: (§1)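 Visual 0–9 rating versus control (stand, vigor, malformation, size, chlorosis, overall appearance), taken four to five weeks post-spray. Two-week-old seedlings received roughly 0.0156–0.500 kg/ha active in acetone/water (50/50) with 0.5% TWEEN 20 via nozzle at 40 psi.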

AMBEL (Ragweed, Common) = assay: Postemergence herbicidal evaluation; format: in vivo, Ambrosia artemisifolia; settings: for AMBEL herbicidal rating: postemergence
How it was run: as §1

ECHCG (Barnyardgrass) = assay: Postemergence herbicidal evaluation; format: in vivo, Echinochloa crus-galli; settings: for ECHCG herbicidal rating: postemergence
How it was run: as §1

SETVI (Foxtail, Green) [2] = assay: Postemergence herbicidal evaluation; format: in vivo, Setaria viridis; settings: for SETVI herbicidal rating: postemergence
How it was run: as §1

[3] = tested on: GLXMAW (Soybean, Williams); assay: Postemergence herbicidal evaluation; format: in vivo, Glycine max, (L.) Merr. cv Williams; settings: for GLXMAW herbicidal rating: postemergence
How it was run: as §1

ORYSAT (Rice, Tebonnet) = assay: Postemergence herbicidal evaluation; format: in vivo, Oryza sativa, (L.) Tebonnet; settings: for ORYSAT herbicidal rating: postemergence
How it was run: as §1

[4] = tested on: TRZAWR (Wheat, Winter, cv Riband); assay: Postemergence herbicidal evaluation; format: in vivo, Triticum aestivum; settings: for TRZAWR herbicidal rating: postemergence
How it was run: as §1

ABUTH (Velvetleaf) [5] = assay: Preemergence herbicidal evaluation; format: in vivo, Abutilon theophrasti; settings: rated 4-5 weeks after treatment
How it was run: (§2)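 Test compound, dissolved in aqueous acetone, was sprayed over planted soil cups at an equivalent of about 0.0156 to 0.500 kg/ha; seeds had been mixed with potting soil. Greenhouse growth followed, with visual 0-9 scoring of injury at four to five weeks.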

CASOB (Sicklepod) = assay: Preemergence herbicidal evaluation; format: in vivo, Cassia obtusifolia; settings: rated 4-5 weeks after treatment
How it was run: as §2

SETVI (Foxtail, Green) [6] = assay: Preemergence herbicidal evaluation; format: in vivo, Setaria viridis; settings: rated 4-5 weeks after treatment
How it was run: as §2

MOOVA (Monochoria) = assay: Preemergence weed control under flooded paddy conditions; format: in vivo, Monochoria vaginalis; settings: rated 3-4 weeks after treatment
How it was run: (§3)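 Seeds or propagules sown in top 0.5 cm of silt loam soil, flooded 1.5 to 3 cm above surface throughout. Compound in 50/50 v/v aqueous/acetone pipetted into flood water at about 0.0313 to 0.500 kg/ha. Visual 0-9 rating versus control after three to four weeks in greenhouse.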

[7] = tested on: SAGPY (Arrowhead (Pygmaea)); assay: as above; format: in vivo, Sagittaria pygmaea; settings: rated 3-4 weeks after treatment
How it was run: as §3

CYPIR (Rice Flatsedge) = assay: Postemergence weed control under flooded paddy conditions; format: in vivo, Cyperus iria; settings: postemergence weeds
How it was run: (§4)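 Injury ratings (0–9 scale covering stand, vigor, malformation, size, chlorosis and overall appearance versus control) were made three to four weeks after treatment. Test material, about 0.0313 to 0.500 kg/ha a.i. in 50/50 v/v aqueous/acetone, was added to flood water 1.5 to 3 cm deep over 3 to 5 cm weeds and 1.5 to 2.5 leaf rice.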

[8] = tested on: SAGPY (Arrowhead (Pygmaea)); assay: as above; format: in vivo, Sagittaria pygmaea; settings: postemergence weeds
How it was run: as §4

[9] = rate 0.0313 kg/ha, 3-4 weeks after treatment
[10] = rate 0.0625 kg/ha, 3-4 weeks after treatment
[11] = rate 0.1250 kg/ha, 3-4 weeks after treatment
[12] = rate 0.2500 kg/ha, 3-4 weeks after treatment
[13] = Rate 0.2500 kg/ha, rated 3 to 4 weeks after treatment

Q: Which results are given for `CCOC(=O)CN1C(=O)C(CC(=O)O)S/C1=N/c1cc(-n2c(=O)cc(C(F)(F)F)n(C)c2=O)c(F)cc1Cl` (stereo not shown) [Compound 16]?
A: ABUTH herbicidal rating (ABUTH (Velvetleaf) [1]; rate 0.0157 kg/ha): 9.0; ABUTH herbicidal rating (ABUTH (Velvetleaf) [1]; rate 0.0313 kg/ha): 9.0; ABUTH herbicidal rating (ABUTH (Velvetleaf) [1]; rate 0.0625 kg/ha): 9.0; ABUTH herbicidal rating (ABUTH (Velvetleaf) [1]; rate 0.1250 kg/ha): 9.0; ABUTH herbicidal rating (ABUTH (Velvetleaf) [1]; rate 0.2500 kg/ha): 9.0; AMBEL herbicidal rating (AMBEL (Ragweed, Common); rate 0.0157 kg/ha): 9.0; AMBEL herbicidal rating (AMBEL (Ragweed, Common); rate 0.0313 kg/ha): 8.0; AMBEL herbicidal rating (AMBEL (Ragweed, Common); rate 0.0625 kg/ha): 9.0; AMBEL herbicidal rating (AMBEL (Ragweed, Common); rate 0.1250 kg/ha): 9.0; AMBEL herbicidal rating (AMBEL (Ragweed, Common); rate 0.2500 kg/ha): 9.0; ECHCG herbicidal rating (ECHCG (Barnyardgrass); rate 0.0157 kg/ha): 3.0; ECHCG herbicidal rating (ECHCG (Barnyardgrass); rate 0.0313 kg/ha): 8.8; ECHCG herbicidal rating (ECHCG (Barnyardgrass); rate 0.0625 kg/ha): 9.0; ECHCG herbicidal rating (ECHCG (Barnyardgrass); rate 0.1250 kg/ha): 9.0; ECHCG herbicidal rating (ECHCG (Barnyardgrass); rate 0.2500 kg/ha): 9.0; SETVI herbicidal rating (SETVI (Foxtail, Green) [2]; rate 0.0157 kg/ha): 9.0; SETVI herbicidal rating (SETVI (Foxtail, Green) [2]; rate 0.0313 kg/ha): 7.8; SETVI herbicidal rating (SETVI (Foxtail, Green) [2]; rate 0.0625 kg/ha): 9.0; SETVI herbicidal rating (SETVI (Foxtail, Green) [2]; rate 0.1250 kg/ha): 9.0; SETVI herbicidal rating (SETVI (Foxtail, Green) [2]; rate 0.2500 kg/ha): 9.0; GLXMAW herbicidal rating ([3]; rate 0.0157 kg/ha): 9.0; GLXMAW herbicidal rating ([3]; rate 0.0313 kg/ha): 8.6; GLXMAW herbicidal rating ([3]; rate 0.0625 kg/ha): 8.9; GLXMAW herbicidal rating ([3]; rate 0.1250 kg/ha): 9.0; GLXMAW herbicidal rating ([3]; rate 0.2500 kg/ha): 9.0; ORYSAT herbicidal rating (ORYSAT (Rice, Tebonnet); rate 0.0157 kg/ha): 3.0; ORYSAT herbicidal rating (ORYSAT (Rice, Tebonnet); rate 0.0313 kg/ha): 4.2; ORYSAT herbicidal rating (ORYSAT (Rice, Tebonnet); rate 0.0625 kg/ha): 5.7; ORYSAT herbicidal rating (ORYSAT (Rice, Tebonnet); rate 0.1250 kg/ha): 7.3; ORYSAT herbicidal rating (ORYSAT (Rice, Tebonnet); rate 0.2500 kg/ha): 7.5; TRZAWR herbicidal rating ([4]; rate 0.0157 kg/ha): 7.5; TRZAWR herbicidal rating ([4]; rate 0.0313 kg/ha): 6.5; TRZAWR herbicidal rating ([4]; rate 0.0625 kg/ha): 7.5; TRZAWR herbicidal rating ([4]; rate 0.1250 kg/ha): 7.9; TRZAWR herbicidal rating ([4]; rate 0.2500 kg/ha): 8.5; ABUTH preemergence herbicidal rating (ABUTH (Velvetleaf) [5]; rate 0.0156 kg/ha): 5.6; ABUTH preemergence herbicidal rating (ABUTH (Velvetleaf) [5]; rate 0.0313 kg/ha): 8.1; ABUTH preemergence herbicidal rating (ABUTH (Velvetleaf) [5]; rate 0.0625 kg/ha): 8.8; ABUTH preemergence herbicidal rating (ABUTH (Velvetleaf) [5]; rate 0.1250 kg/ha): 8.9; ABUTH preemergence herbicidal rating (ABUTH (Velvetleaf) [5]; rate 0.2500 kg/ha): 9.0; ABUTH preemergence herbicidal rating (ABUTH (Velvetleaf) [5]; rate 0.5000 kg/ha): 9.0; CASOB preemergence herbicidal rating (CASOB (Sicklepod); rate 0.0156 kg/ha): 0.3; CASOB preemergence herbicidal rating (CASOB (Sicklepod); rate 0.0313 kg/ha): 0.6; CASOB preemergence herbicidal rating (CASOB (Sicklepod); rate 0.0625 kg/ha): 2.7; CASOB preemergence herbicidal rating (CASOB (Sicklepod); rate 0.1250 kg/ha): 5.3; CASOB preemergence herbicidal rating (CASOB (Sicklepod); rate 0.2500 kg/ha): 8.3; CASOB preemergence herbicidal rating (CASOB (Sicklepod); rate 0.5000 kg/ha): 9.0; SETVI preemergence herbicidal rating (SETVI (Foxtail, Green) [6]; rate 0.0156 kg/ha): 0.2; SETVI preemergence herbicidal rating (SETVI (Foxtail, Green) [6]; rate 0.0313 kg/ha): 1.0; SETVI preemergence herbicidal rating (SETVI (Foxtail, Green) [6]; rate 0.0625 kg/ha): 3.7; SETVI preemergence herbicidal rating (SETVI (Foxtail, Green) [6]; rate 0.1250 kg/ha): 7.5; SETVI preemergence herbicidal rating (SETVI (Foxtail, Green) [6]; rate 0.2500 kg/ha): 8.5; SETVI preemergence herbicidal rating (SETVI (Foxtail, Green) [6]; rate 0.5000 kg/ha): 8.9; Herbicidal rating MOOVA (MOOVA (Monochoria); 0.0313 kg/ha): 9.0; Herbicidal rating MOOVA (MOOVA (Monochoria); 0.0625 kg/ha): 9.0; Herbicidal rating MOOVA (MOOVA (Monochoria); 0.1250 kg/ha): 9.0; Herbicidal rating MOOVA (MOOVA (Monochoria); 0.2500 kg/ha): 3.0; Herbicidal rating SAGPY ([7]; 0.0313 kg/ha): 0.0; Herbicidal rating SAGPY ([7]; 0.0625 kg/ha): 0.0; Herbicidal rating SAGPY ([7]; 0.1250 kg/ha): 0.0; Herbicidal rating SAGPY ([7]; 0.2500 kg/ha): 0.0; Herbicidal rating CYPIR (CYPIR (Rice Flatsedge); [9]): 0.0; Herbicidal rating CYPIR (CYPIR (Rice Flatsedge); [10]): 0.0; Herbicidal rating CYPIR (CYPIR (Rice Flatsedge); [11]): 4.0; Herbicidal rating CYPIR (CYPIR (Rice Flatsedge); [12]): 9.0; Herbicidal rating SAGPY [8, 9]: 0.0; Herbicidal rating SAGPY [8, 10]: 0.0; Herbicidal rating SAGPY [8, 11]: 0.0; Herbicidal rating SAGPY [8, 12]: 0.0

Q: Which results are given for `Cn1c(C(F)(F)F)cc(=O)n(-c2cc(/N=C3/SC(CC(=O)O)C(=O)N3CC(=O)O)c(Cl)cc2F)c1=O` (stereo not shown) [Compound 61, 2-{{2-Chloro-5-[3,6-dihydro-3-methyl-2,6-dioxo-4-(trifluoromethyl)-1(2H)-pyrimidinyl]-4-fluorophenyl}imino}-4-oxo-3,5-thiazolidinediacetic acid]?
A: Postemergence herbicidal rating ABUTH (ABUTH (Velvetleaf) [1]; Rate 0.0158 kg/ha): 0.0; Postemergence herbicidal rating ABUTH (ABUTH (Velvetleaf) [1]; Rate 0.0315 kg/ha): 0.0; Postemergence herbicidal rating ABUTH (ABUTH (Velvetleaf) [1]; Rate 0.0630 kg/ha): 0.0; Postemergence herbicidal rating AMBEL (AMBEL (Ragweed, Common); Rate 0.0158 kg/ha): 0.0; Postemergence herbicidal rating AMBEL (AMBEL (Ragweed, Common); Rate 0.0315 kg/ha): 0.0; Postemergence herbicidal rating AMBEL (AMBEL (Ragweed, Common); Rate 0.0630 kg/ha): 0.0; Postemergence herbicidal rating ECHCG (ECHCG (Barnyardgrass); Rate 0.0158 kg/ha): 0.0; Postemergence herbicidal rating ECHCG (ECHCG (Barnyardgrass); Rate 0.0315 kg/ha): 0.0; Postemergence herbicidal rating ECHCG (ECHCG (Barnyardgrass); Rate 0.0630 kg/ha): 0.0; Postemergence herbicidal rating SETVI (SETVI (Foxtail, Green) [2]; Rate 0.0158 kg/ha): 0.0; Postemergence herbicidal rating SETVI (SETVI (Foxtail, Green) [2]; Rate 0.0315 kg/ha): 0.0; Postemergence herbicidal rating SETVI (SETVI (Foxtail, Green) [2]; Rate 0.0630 kg/ha): 2.0; Postemergence herbicidal rating GLXMAW ([3]; Rate 0.0158 kg/ha): 2.0; Postemergence herbicidal rating GLXMAW ([3]; Rate 0.0315 kg/ha): 3.0; Postemergence herbicidal rating GLXMAW ([3]; Rate 0.0630 kg/ha): 4.0; Postemergence herbicidal rating ORYSAT (ORYSAT (Rice, Tebonnet); Rate 0.0158 kg/ha): 0.5; Postemergence herbicidal rating ORYSAT (ORYSAT (Rice, Tebonnet); Rate 0.0315 kg/ha): 0.5; Postemergence herbicidal rating ORYSAT (ORYSAT (Rice, Tebonnet); Rate 0.0630 kg/ha): 1.5; Postemergence herbicidal rating TRZAWR ([4]; Rate 0.0158 kg/ha): 0.5; Postemergence herbicidal rating TRZAWR ([4]; Rate 0.0315 kg/ha): 0.5; Postemergence herbicidal rating TRZAWR ([4]; Rate 0.0630 kg/ha): 1.5; Preemergence herbicidal rating ABUTH (ABUTH (Velvetleaf) [5]; rate 0.1250 kg/ha): 0.0; Preemergence herbicidal rating ABUTH (ABUTH (Velvetleaf) [5]; rate 0.2500 kg/ha): 1.0; Preemergence herbicidal rating CASOB (CASOB (Sicklepod); rate 0.1250 kg/ha): 0.0; Preemergence herbicidal rating CASOB (CASOB (Sicklepod); rate 0.2500 kg/ha): 1.0; Preemergence herbicidal rating SETVI (SETVI (Foxtail, Green) [6]; rate 0.1250 kg/ha): 0.0; Preemergence herbicidal rating SETVI (SETVI (Foxtail, Green) [6]; rate 0.2500 kg/ha): 1.0; MOOVA herbicidal effect rating (MOOVA (Monochoria); 0.2500 kg/ha): 0.0; SAGPY herbicidal effect rating ([7]; 0.2500 kg/ha): 0.0; Herbicidal rating CYPIR (CYPIR (Rice Flatsedge); [13]): 0.0; Herbicidal rating SAGPY [8, 13]: 0.0

Source: patent publication US20020137929A1, “1 - (3-heterocyclylphenyl) isothiourea, -isourea, -guanidine and -amidine herbicidal agents” (Intellectual Property Department, BASF Aktiengesellschaft, priority 1998, published 2002)
